From ChEMBL document CHEMBL1201862, “PubChem BioAssay data set” (2004)
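Exposure lasted 48 hours, with cells grown in 96-well plates and compounds tested at five concentrations. Abbreviation: GI50, concentration required for 50% inhibition of growth.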 Active and inactive are the calls of the source. Rule as the data show it: active = GI50 up to about 1.1 µM and inactive = higher.

Tests used:
Experiment in all cases: NCI tumour cell line growth inhibition, 48 h
[1] = system: NCI-H460
[2] = system: SNB-75
[3] = system: A549
[4] = system: HL-60
[5] = system: HOP-92
[6] = system: SF-268
[7] = system: MDA-MB-231
[8] = system: SK-MEL-5
[9] = system: UO-31
[10] = system: 786-0
[11] = system: Malme-3M
[12] = system: HT-29
[13] = system: HCC 2998
[14] = system: RPMI-8226
[15] = system: DU-145
[16] = system: COLO 205
[17] = system: HCT-116
[18] = system: KM12

Measured: GI50

COc1c2c3c4c(c(OC)c(=O)c5c(O)cc(OC)c(c6c(OC)cc(O)c(c1=O)c63)c54)C(C(C)O)C2C(C)=O (stereo unspecified)
active: [1] 0.226 µM | [2] 0.256 µM | [3] 0.353 µM | [4] 0.334 µM | [5] 0.225 µM | [6] 0.492 µM | [7] 0.741 µM | [8] 0.138 µM | [9] 0.325 µM | [10] 0.61 µM | [11] 0.448 µM | [12] 0.47 µM | [13] 0.481 µM | [14] 0.513 µM | [15] 0.641 µM | [16] 0.571 µM | [17] 0.385 µM | [18] 0.431 µM

COC(=O)c1sc(=S)sc1SCc1cccc(CSc2sc(=S)sc2C(=O)OC)c1
inactive: [1] > 100 µM | [2] 11.6 µM | [5] 29.4 µM | [6] 44.5 µM | [7] 36.6 µM | [8] > 100 µM | [9] > 100 µM | [10] 33.4 µM | [11] > 100 µM | [12] > 100 µM | [13] > 100 µM | [14] > 100 µM | [15] > 100 µM | [16] > 100 µM | [17] 90.6 µM | [18] > 100 µM

COC(=O)CCCc1nc2ccccc2nc1/N=N/c1ccccc1
inactive: [1] 49.8 µM | [2] 38.5 µM | [3] 29.9 µM | [4] 2.57 µM | [5] > 100 µM | [6] 51.2 µM | [7] > 100 µM | [8] 61.1 µM | [9] 25.9 µM | [10] 38.1 µM | [11] 17.4 µM | [12] 32.1 µM | [13] > 100 µM | [14] 22.9 µM | [15] 48.3 µM | [16] 3.71 µM | [17] 30.3 µM | [18] 37.1 µM

COC(=O)/C(=C\c1cn(C(C)=O)c2ccccc12)P(=O)(OC)OC
inactive: [1] 15 µM | [2] 12 µM | [3] 16.4 µM | [4] 78.5 µM | [5] 16.6 µM | [6] 22.4 µM | [7] 11.7 µM | [8] 13.4 µM | [9] 13.1 µM | [10] 17.6 µM | [11] 16.7 µM | [12] 16.1 µM | [13] 16.8 µM | [14] 17.1 µM | [15] 13.4 µM | [16] 16.8 µM | [17] 13.9 µM

CC1NC(=O)c2c(-c3ccccc3)nn(-c3ccccc3)c2NC1=O (stereo unspecified)
inactive: [1] > 100 µM | [2] > 100 µM | [3] > 100 µM | [5] > 100 µM | [6] > 100 µM | [7] > 100 µM | [8] > 100 µM | [9] > 100 µM | [10] > 100 µM | [11] > 100 µM | [12] > 100 µM | [13] > 100 µM | [14] > 100 µM | [15] > 100 µM | [16] > 100 µM | [17] > 100 µM | [18] > 100 µM

COC(=O)[C@@H]1CS(=O)(=O)C(C(C)C)N1C(C)=O (stereo partly specified)
inactive: [1] > 100 µM | [2] > 100 µM | [3] > 100 µM | [4] 7.19 µM | [5] > 100 µM | [6] > 100 µM | [7] > 100 µM | [8] > 100 µM | [9] > 100 µM | [10] > 100 µM | [11] > 100 µM | [12] > 100 µM | [13] > 100 µM | [14] > 100 µM | [15] > 100 µM | [16] > 100 µM | [17] > 100 µM | [18] > 100 µM

C[C@]12CC/C(=N\OCCN3CCCC3)C=C1CCC1C2CC[C@@]2(C)C1CC[C@]2(C)O (stereo partly specified)
inactive: [1] 3.97 µM | [2] 2.3 µM | [3] 11.5 µM | [5] 11.7 µM | [6] 13.3 µM | [7] 16.6 µM | [8] 14.8 µM | [9] 11.7 µM | [10] 4.43 µM | [11] 5.21 µM | [12] 1.25 µM | [13] 11.8 µM | [14] 2.83 µM | [15] 11.3 µM | [16] 3.4 µM | [17] 5.16 µM | [18] 5.09 µM
